# According to patent publication US7517902B2, “Substituted indazoles, compositions containing the same, and the preparation and use thereof” (Aventis Pharma S.A., priority 2004, dated 2009):
# Experiments:
# Aurora2 = target: T1, Aurora2 (Homo sapiens, UniProt O14965); assay: Aurora2 enzyme assay, NuMA substrate phosphorylation (Flashplate); assay type: biochemical; settings: read-out: IC 50 Aurora2
# T1 construct: Aurora 2: whole recombinant protein comprising an N-terminal histidine tail; His tag (histidine tail) (N); made in house; host or cells: E. coli
# T1 sequence (O14965 1-403): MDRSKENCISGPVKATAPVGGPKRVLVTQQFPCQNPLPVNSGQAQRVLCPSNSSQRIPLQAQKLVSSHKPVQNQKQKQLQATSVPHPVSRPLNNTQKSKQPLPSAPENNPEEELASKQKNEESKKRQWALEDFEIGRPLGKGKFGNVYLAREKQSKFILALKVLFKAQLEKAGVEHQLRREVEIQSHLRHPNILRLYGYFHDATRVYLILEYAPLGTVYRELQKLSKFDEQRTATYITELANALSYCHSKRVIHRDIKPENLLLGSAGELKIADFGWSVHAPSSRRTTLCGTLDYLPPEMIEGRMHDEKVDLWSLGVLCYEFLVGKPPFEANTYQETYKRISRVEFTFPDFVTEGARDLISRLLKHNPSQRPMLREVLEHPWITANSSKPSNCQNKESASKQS
# Experimental: The inhibitory effect of compounds with respect to the kinases Aurora1 and Aurora2 is determined by an enzyme assay employing radioactivity detection.
# The kinase activity of Aurora 1 and Aurora 2 is evaluated by the phosphorylation of the substrate Numa-histidine in the presence of radiolabeled ATP ([^33P]ATP), using 96-well Flashplate plates in which nickel chelate is fixed to the surface of the microplate. The amount of ^33P phosphate incorporated in the NuMA substrate is proportional to the activity of the enzyme Aurora1 or Aurora2.
# The proteins are produced in the protein production laboratory of the SanofiAventis group.
# Aurora 2: whole recombinant protein comprising an N-terminal histidine tail, expressed in E. coli and purified to more than 82%.
# NuMA (nuclear protein that associates with the mitotic apparatus) fragment of 424 amino acids, expressed in E. coli, whose N-terminal end has been labeled with histidine and used as a substrate for the two Aurora enzymes.
# The microplates used are 96-well Flash-Plate plates with nickel chelate (Perkin Elmer, model SMP107).
# The products for evaluation are incubated in a reaction volume of 100 μL per well in the presence of 10 nM of Aurora 1 or Aurora 2, 500 nM of NuMA substrate in a buffer composed of 50 mM of Tris/HCl (pH 7.5), 50 mM NaCl, 5 mM MgCl2 (Aurora-B) or 10 mM MgCl2 (Aurora-A) and 1 mM of DTT, at 37° C.
# In each well, 80 μL of the enzyme/substrate incubation buffer are distributed, followed by 10 μL of the product to be evaluated, in variable concentrations. The reaction is initiated by adding 1 μM of final ATP containing 0.2 μCi of [^33P]ATP (10 μL). After 30 minutes of incubation, the reaction is terminated by simply removing the reaction buffer and each well is washed twice with 300 μl of the Tris/HCl buffer. The radioactivity is then measured in each well by means of a scintillation apparatus, Packard, Top count model.
# The control enzyme activity of Aurora is expressed by the number of counts per minute obtained within 30 minutes, after deduction of the background noise (reaction mixture not containing the enzyme). The evaluation of the various test products is expressed in percentage inhibition of the Aurora activity relative to the control.
# human Tie2 = target: T2, human Tie2 (Homo sapiens, UniProt Q02763); assay: Tie2 assay of PLC phosphorylation (FlashPlate); assay type: biochemical; settings: read-out: IC 50 TIE2
# T2 construct: amino acids of the intracellular domain 776-1124; made in house
# T2 sequence (Q02763 776-1124): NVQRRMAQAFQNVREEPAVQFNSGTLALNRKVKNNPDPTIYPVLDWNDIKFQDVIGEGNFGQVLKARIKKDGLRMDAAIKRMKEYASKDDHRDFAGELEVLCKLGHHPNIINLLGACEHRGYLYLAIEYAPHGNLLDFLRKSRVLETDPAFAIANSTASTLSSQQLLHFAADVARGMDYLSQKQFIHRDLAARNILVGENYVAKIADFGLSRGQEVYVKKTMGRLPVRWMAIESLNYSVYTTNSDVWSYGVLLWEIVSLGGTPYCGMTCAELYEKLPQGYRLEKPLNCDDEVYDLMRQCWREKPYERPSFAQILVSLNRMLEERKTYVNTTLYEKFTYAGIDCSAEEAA
# Experimental: The coding sequence of human Tie2, corresponding to the amino acids of the intracellular domain 776-1124, was generated by PCR, using the cDNA isolated from human placenta as a model. This sequence was introduced into a baculovirus expression vector pFastBacGT in the form of a GST fusion protein.
# The inhibitory effect of the molecules is determined in an assay of PLC phosphorylation by Tie2 in the presence of GST-Tie2 purified to approximately 80% homogeneity. The substrate is composed of the SH2-SH3 fragments of PLC expressed in the form of a GST fusion protein.
# The kinase activity of Tie2 is measured in a 20 mM MOPS buffer, pH 7.2, containing 10 mM MgCl2, 10 mM MnCl2, 1 mM DTT, 10 mM of glycerol-phosphate. In a 96-well FlashPlate plate, kept on ice, a reaction mixture is deposited which is composed of 70 μl of kinase buffer containing 100 ng of GST-Tie2 enzyme per well. Subsequently 10 μl of the test molecule diluted to a concentration of 10% maximum in DMvSO are added. For a given concentration, each measurement is carried out in quadruplicate. The reaction is initiated by adding 20 μl of solution containing 2 μg of GST-PLC, 2 μM of cold ATP and 1 μCi of ^33P[ATP]. After 1 hour of incubation at 37° C., the reaction is terminated by adding 1 volume (100 μl) of 200 mM EDTA. Following removal of the incubation buffer, the wells are washed three times with 300 μl of PBS. The radioactivity is measured on a Wallac MicroBeta 1450.
# The inhibition of Tie2 activity is calculated and expressed as a percentage inhibition relative to the control activity determined in the absence of compound.
# human KDR enzyme = target: T3, human KDR enzyme (Homo sapiens, UniProt P35968); assay: KDR substrate phosphorylation assay (scintillation, 96-well plate); assay type: biochemical
# T3 construct: The cytoplasmic domain of the human KDR enzyme was cloned in the form of a GST fusion; GST; made in house; host or cells: SF21 insect cells (baculovirus, pFastBac)
# T3 sequence (P35968 786-1356 limits assumed): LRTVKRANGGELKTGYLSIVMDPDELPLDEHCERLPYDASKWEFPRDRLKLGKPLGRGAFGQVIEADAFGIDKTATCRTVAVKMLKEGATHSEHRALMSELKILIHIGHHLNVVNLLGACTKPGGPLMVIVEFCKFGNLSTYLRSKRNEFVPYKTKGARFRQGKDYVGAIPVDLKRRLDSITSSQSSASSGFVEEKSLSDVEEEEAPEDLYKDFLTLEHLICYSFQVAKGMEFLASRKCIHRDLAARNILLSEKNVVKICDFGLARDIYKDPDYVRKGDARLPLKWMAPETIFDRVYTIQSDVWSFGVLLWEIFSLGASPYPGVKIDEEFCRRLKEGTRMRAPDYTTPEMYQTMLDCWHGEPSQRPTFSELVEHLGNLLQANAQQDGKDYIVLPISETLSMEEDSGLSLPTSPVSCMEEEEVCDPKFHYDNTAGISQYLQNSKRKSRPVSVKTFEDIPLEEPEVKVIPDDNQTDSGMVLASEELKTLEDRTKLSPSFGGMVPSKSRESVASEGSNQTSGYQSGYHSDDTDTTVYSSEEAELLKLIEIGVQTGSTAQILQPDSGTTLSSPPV
# Experimental: The inhibitory effect of the compounds is determined in an assay of substrate phosphorylation by the KDR enzyme in vitro using a scintillation technique (96-well plate, NEN).
# The cytoplasmic domain of the human KDR enzyme was cloned in the form of a GST fusion into the baculovirus expression vector pFastBac. The protein was expressed in SF21 cells and purified to approximately 60% homogeneity.
# The KDR kinase activity is measured in 20 mM MOPS, 10 mM MgCl2, 10 mM MnCl2, 1 mM DTT, 2.5 mM EGTA, 10 mM β-glycerophosphate, pH=7.2, in the presence of 10 mM MgCl2, 100 μM Na3VO4, 1 mM NaF. 10 μl of the compound are added to 70 μl of kinase buffer, containing 100 ng of KDR enzyme at 4° C. The reaction is triggered by adding 20 μl of solution containing 2 μg of substrate (SH2-SH3 fragment of PLCγ expressed in the form of a GST fusion protein), 2 μCi γ^33P[ATP] and 2 μM cold ATP. After 1 hour of incubation at 37° C., the reaction is stopped by adding 1 volume (100 μl) of 200 mM EDTA. The incubation buffer is withdrawn and the wells are washed three times with 300 μl of PBS. The radioactivity is measured in each well using a Top Count NXT radioactivity counter (Packard).
# The background noise is determined by measuring the radioactivity in four different wells containing the radioactive ATP and the substrate alone.
# A control for total activity is measured in four different wells containing all of the reagents (γ^33P-[ATP], KDR and PLCγ substrate), but in the absence of compound.
# The inhibition of KDR activity with the compound of the invention is expressed in percentage inhibition of the control activity determined in the absence of compound.
# The compound SU5614 (Calbiochem) (1 μM) is included in each plate as an inhibition control.
melting point [°C],IC50 (Aurora2) [nM],IC50 (human Tie2) [nM],IC50 (human KDR enzyme) [nM],Compound
152 to 153,60,8,29,"O=C(Nc1ccc(-c2ccc3c(NC(=O)c4ccco4)n[nH]c3c2F)cc1)Nc1cc(C(F)(F)F)ccc1F [Example 17, 1-(4-{7-Fluoro-3-[(furan-2-yl)carbonylamino]-1H-indazol-6-yl}phenyl)-3-(2-fluoro-5-trifluoromethylphenyl)urea]"
206 to 207,346,26,77,"O=C(Nc1ccc(-c2ccc3c(NC(=O)c4ccccc4)n[nH]c3c2F)cc1)Nc1cc(C(F)(F)F)ccc1F [Example 18, 1-(4-{7-Fluoro-3-[phenylcarbonylamino]-1H-indazol-6-yl}phenyl)-3-(2-fluoro-5-trifluoromethylphenyl)urea]"
